Source: ChEMBL document CHEMBL1201862, “PubChem BioAssay data set” (2004)
Calls of active or inactive are those of the source.

Tests used:
Cytochrome P450 2C19 = Cytochrome P450 2C19 (Homo sapiens, UniProt P33261); experiment: Cytochrome panel assay with activity outcomes. Panel member name: p450-cyp2c19 Compounds with AC50 equal or less than 10 uM are considered active; assay type: functional; settings: read-out: AC50
Cytochrome P450 2C9 = Cytochrome P450 2C9 (Homo sapiens, UniProt P11712)
Cytochrome P450 3A4 = Cytochrome P450 3A4 (Homo sapiens, UniProt P08684);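 also: CYP3A4 tested as one member of a cytochrome P450 panel screen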
Sequence of Cytochrome P450 3A4 (P08684 whole entry): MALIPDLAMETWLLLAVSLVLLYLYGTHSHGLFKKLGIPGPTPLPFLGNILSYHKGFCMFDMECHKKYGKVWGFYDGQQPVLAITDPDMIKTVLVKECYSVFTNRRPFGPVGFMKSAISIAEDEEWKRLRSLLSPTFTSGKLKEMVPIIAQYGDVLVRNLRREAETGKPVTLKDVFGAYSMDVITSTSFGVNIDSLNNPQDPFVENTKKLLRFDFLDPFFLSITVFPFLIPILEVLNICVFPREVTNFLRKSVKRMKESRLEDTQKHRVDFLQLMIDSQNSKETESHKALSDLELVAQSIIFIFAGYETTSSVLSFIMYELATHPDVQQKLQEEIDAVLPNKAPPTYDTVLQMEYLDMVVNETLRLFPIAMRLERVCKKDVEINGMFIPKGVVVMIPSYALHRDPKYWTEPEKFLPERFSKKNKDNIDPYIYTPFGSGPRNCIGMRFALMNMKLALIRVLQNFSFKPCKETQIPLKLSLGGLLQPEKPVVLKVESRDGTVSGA

[1] = biological target: T1, Ubiquitin-conjugating enzyme E2 N (Homo sapiens, UniProt P61088); assay type: functional;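 also: Dose-response confirmation in a TR-FRET assay detecting UBC13-driven polyubiquitin chain formation, inhibition measured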
T1 sequence (P61088 whole entry): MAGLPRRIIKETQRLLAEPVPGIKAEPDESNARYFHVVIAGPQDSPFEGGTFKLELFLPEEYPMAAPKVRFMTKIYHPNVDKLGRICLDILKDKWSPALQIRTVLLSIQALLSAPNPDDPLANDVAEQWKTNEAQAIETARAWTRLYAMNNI

Cysteine protease ATG4B = biological target: T2, Cysteine protease ATG4B (Homo sapiens, UniProt Q9Y4P1); assay type: functional;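 also: Fluorescence-based dose-response confirmation assay measuring inhibition of ATG4B activity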
T2 sequence (Q9Y4P1 whole entry): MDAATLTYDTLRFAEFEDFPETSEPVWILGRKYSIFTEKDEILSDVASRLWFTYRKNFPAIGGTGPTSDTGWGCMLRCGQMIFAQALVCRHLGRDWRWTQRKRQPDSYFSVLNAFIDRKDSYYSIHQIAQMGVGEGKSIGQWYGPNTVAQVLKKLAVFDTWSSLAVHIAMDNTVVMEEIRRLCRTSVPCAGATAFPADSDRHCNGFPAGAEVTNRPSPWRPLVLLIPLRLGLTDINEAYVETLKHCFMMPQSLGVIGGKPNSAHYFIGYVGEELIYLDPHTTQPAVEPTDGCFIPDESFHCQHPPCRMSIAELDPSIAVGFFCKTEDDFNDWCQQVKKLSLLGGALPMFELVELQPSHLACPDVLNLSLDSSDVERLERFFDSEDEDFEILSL

Phospholipase A2 = Phospholipase A2 (Homo sapiens, UniProt P04054); assay type: functional;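 also: confirmatory dose-response counterscreen on phospholipase A2, testing hits that came from an ultra-high-throughput screen for ATG4B inhibitors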
Sequence of Phospholipase A2 (P04054 whole entry): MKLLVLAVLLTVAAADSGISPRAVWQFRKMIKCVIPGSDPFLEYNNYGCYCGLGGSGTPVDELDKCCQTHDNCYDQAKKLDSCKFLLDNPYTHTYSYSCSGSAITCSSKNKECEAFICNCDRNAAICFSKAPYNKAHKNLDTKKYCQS

HEK293 [2] = experiment: cells; assay type: functional, cell-based; settings: Homo sapiens
[3] = biological target: T3, Nuclear receptor subfamily 0 group B member 1 (Homo sapiens, UniProt P51843); experiment: Luminescence-based cell-based high throughput dose response assay for inhibitors of the orphan nuclear receptor subfamily 0, group B, member 1 (DAX1; NR0B1). [Related pubchem assays (depositor defined):AID504766, AID504790]; assay type: functional
T3 sequence (P51843 whole entry): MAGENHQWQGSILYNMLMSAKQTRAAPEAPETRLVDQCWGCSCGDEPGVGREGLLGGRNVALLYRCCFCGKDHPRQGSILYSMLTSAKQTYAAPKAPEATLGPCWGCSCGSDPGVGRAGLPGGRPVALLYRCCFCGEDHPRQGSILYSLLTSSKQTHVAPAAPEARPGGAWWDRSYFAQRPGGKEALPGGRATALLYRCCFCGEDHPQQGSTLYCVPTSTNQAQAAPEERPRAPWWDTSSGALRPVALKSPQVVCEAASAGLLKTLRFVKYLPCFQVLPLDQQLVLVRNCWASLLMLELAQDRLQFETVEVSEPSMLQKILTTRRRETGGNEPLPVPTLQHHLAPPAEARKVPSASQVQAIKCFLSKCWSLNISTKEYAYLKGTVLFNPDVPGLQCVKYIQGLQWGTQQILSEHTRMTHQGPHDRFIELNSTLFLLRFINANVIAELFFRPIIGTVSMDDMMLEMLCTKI

[4] = NIH-3T3 fibroblast cytotoxicity, dose response, cytotoxicity control, cell-based, fluorescence, Alamar Blue, secondary assay (AID 2327); assay type: functional;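 also: NIH-3T3 mouse fibroblasts cultured with fluconazole at 8 µg/mL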
[5] = C. albicans growth with fluconazole, confirmation, fluorescence, retest (AID 2467); assay type: functional, cell-based
[6] = inhibitors of intracellular T. cruzi replication, confirmation, NIH3T3 host cells, beta-gal luminescence (AID 2044); assay type: functional, cell-based;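 also: intracellular parasites grown in NIH/3T3 mouse fibroblasts as host cells; luminescent beta-galactosidase reporter signal from transgenic T. cruzi replicating inside host cells; inhibitors lower the luminescence signal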
[7] = cytotoxicity toward NIH3T3 fibroblasts, dose response, counter-screen, cell-based, ATP luminescence, mouse fibroblasts (AID 2010); assay type: functional;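 also: cells exposed to compound for about 90 hours before reading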
Cytochrome P450 2D6 = Cytochrome P450 2D6 (Homo sapiens, UniProt P10635);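 also: CYP2D6 member of a cytochrome P450 panel assay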
Sequence of Cytochrome P450 2D6 (P10635 whole entry): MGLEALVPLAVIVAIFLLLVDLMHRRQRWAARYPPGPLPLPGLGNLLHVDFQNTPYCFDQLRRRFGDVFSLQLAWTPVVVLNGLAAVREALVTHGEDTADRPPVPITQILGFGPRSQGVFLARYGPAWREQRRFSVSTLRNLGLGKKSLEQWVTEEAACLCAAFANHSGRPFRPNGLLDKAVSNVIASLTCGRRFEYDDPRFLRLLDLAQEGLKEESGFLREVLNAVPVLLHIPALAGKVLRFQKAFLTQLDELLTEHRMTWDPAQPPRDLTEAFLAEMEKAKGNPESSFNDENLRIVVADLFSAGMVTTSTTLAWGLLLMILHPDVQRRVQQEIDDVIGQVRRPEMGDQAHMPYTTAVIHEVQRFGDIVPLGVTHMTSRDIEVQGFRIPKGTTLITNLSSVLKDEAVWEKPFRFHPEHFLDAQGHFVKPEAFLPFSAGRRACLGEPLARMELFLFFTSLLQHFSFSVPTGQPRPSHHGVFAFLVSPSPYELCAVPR

HEK293 [8] = experiment: NOD1 signaling inhibitors, primary screen, cell-based, luminescence, uHTS (AID 1578); assay type: functional; settings: Homo sapiens
HEK293 [9] = experiment: cells; assay type: functional, cell-based; settings: Homo sapiens; remark: listed apart in the source
HEK293 [10] = experiment: cells; assay type: functional, cell-based; settings: Homo sapiens; remark: listed apart in the source
[11] = biological target: Nucleotide-binding oligomerization domain-containing protein 2 (Homo sapiens, UniProt Q9HC29); experiment: NOD2 signaling inhibitors, cell-based, luminescence, uHTS, HEK293 (AID 1566); assay type: functional
Sequence of Nucleotide-binding oligomerization domain-containing protein 2 (Q9HC29 whole entry, the tested form may be a part): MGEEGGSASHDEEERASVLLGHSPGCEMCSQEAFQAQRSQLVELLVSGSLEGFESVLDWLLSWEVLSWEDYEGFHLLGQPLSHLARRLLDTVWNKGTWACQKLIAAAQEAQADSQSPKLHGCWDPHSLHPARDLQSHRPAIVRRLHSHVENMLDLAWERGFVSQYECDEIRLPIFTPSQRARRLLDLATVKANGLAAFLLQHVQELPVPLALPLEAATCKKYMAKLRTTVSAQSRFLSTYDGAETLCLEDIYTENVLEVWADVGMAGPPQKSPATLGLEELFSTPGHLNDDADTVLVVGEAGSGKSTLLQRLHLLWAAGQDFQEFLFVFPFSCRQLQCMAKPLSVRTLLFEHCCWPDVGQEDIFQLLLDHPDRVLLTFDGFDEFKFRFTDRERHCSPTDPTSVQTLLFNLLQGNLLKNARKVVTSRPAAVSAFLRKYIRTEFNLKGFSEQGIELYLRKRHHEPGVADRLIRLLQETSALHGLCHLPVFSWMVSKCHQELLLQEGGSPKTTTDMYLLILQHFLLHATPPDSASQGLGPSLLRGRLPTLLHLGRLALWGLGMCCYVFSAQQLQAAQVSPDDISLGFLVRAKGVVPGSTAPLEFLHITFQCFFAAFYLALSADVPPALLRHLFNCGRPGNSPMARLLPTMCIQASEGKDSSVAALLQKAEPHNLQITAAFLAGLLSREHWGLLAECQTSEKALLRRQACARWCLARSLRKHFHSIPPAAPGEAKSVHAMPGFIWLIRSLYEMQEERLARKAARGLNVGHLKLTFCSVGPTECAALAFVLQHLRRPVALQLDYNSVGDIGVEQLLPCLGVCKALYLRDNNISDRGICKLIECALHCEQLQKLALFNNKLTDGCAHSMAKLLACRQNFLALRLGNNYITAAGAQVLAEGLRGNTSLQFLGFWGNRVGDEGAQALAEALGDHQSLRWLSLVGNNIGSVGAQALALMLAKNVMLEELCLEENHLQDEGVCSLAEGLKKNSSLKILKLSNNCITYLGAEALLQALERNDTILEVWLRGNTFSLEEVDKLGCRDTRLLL

HEK293 [12] = experiment: NOD2 signaling inhibitors in MDP-stimulated cells, cell-based, uHTS, luminescence (AID 2001); assay type: functional; settings: Homo sapiens
HEK293 [13] = experiment: cells; assay type: functional, cell-based; settings: Homo sapiens; remark: listed apart in the source
[14] = biological target: T4, High affinity choline transporter 1 (Homo sapiens, UniProt Q9GZV3); experiment: CHT inhibitors, dose response, cell-based, 5-point CRC, membrane potential dye (AID 504840); assay type: functional
T4 sequence (Q9GZV3 whole entry): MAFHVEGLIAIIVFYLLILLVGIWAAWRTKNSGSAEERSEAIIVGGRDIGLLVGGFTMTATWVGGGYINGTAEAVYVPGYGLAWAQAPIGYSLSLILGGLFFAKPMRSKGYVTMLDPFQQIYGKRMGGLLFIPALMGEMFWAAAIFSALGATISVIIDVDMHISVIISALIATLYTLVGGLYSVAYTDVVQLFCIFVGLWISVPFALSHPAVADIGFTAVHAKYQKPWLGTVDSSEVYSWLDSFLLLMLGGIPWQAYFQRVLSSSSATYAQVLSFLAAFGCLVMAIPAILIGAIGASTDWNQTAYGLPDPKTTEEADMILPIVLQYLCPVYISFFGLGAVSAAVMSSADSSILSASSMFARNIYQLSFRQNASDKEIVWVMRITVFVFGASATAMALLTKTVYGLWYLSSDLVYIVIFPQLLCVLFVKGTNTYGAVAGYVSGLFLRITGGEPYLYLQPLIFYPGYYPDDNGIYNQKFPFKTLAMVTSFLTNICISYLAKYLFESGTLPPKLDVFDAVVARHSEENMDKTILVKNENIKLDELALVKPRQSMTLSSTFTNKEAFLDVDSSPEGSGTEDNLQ

[15] = Shn3 3'UTR reporter inhibitors, dose response, cell-based, Clone20 osteoblasts, firefly luciferase, cherry-picked (AID 624132); assay type: functional;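 also: firefly luciferase luminescence from reporter carrying the Shn3 3'UTR in osteoblasts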
[16] = HepG2 cell cytotoxicity, dose response, cytotoxicity control for Shn3 inhibitor project, CellTiter-Glo, cherry-picked (AID 624134); assay type: functional, cell-based
[17] = control 3'UTR Renilla luciferase suppression, dose response, counter-screen for Shn3 inhibitor project, cell-based, Clone20-Shn3RL, cherry-picked (AID 624133); assay type: functional
Cytochrome P450 1A2 = biological target: T5, Cytochrome P450 1A2 (Homo sapiens, UniProt P05177);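 also: PubChem cytochrome P450 panel assay, CYP1A2 panel member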
T5 sequence (P05177 whole entry): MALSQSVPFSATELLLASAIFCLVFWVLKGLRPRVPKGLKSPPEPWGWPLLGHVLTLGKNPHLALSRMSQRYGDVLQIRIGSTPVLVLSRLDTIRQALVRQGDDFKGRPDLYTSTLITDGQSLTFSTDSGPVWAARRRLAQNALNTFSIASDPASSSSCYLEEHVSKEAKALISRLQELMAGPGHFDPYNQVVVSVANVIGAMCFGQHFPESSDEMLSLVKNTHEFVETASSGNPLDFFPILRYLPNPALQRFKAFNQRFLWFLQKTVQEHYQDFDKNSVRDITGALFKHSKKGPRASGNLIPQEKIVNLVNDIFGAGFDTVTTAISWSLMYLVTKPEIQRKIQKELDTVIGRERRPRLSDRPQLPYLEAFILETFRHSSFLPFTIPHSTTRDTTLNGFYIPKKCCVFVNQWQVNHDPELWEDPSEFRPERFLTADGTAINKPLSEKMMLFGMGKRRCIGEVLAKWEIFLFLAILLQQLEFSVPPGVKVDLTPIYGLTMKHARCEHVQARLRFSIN

Sequence of Cytochrome P450 2C9 (P11712 whole entry): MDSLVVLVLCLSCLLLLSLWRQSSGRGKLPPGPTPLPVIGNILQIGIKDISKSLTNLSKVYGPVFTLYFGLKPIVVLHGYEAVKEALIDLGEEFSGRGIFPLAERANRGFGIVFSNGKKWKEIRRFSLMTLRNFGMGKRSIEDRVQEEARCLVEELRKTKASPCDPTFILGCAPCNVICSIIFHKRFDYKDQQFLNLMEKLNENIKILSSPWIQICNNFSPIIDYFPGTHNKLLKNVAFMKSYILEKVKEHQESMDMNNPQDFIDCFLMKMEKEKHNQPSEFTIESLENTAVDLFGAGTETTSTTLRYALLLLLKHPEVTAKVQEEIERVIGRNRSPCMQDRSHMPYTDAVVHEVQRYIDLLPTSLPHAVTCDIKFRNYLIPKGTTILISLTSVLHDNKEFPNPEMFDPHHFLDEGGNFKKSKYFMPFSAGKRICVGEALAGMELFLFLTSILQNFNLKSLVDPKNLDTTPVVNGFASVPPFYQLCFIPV
Sequence of Cytochrome P450 2C19 (P33261 whole entry): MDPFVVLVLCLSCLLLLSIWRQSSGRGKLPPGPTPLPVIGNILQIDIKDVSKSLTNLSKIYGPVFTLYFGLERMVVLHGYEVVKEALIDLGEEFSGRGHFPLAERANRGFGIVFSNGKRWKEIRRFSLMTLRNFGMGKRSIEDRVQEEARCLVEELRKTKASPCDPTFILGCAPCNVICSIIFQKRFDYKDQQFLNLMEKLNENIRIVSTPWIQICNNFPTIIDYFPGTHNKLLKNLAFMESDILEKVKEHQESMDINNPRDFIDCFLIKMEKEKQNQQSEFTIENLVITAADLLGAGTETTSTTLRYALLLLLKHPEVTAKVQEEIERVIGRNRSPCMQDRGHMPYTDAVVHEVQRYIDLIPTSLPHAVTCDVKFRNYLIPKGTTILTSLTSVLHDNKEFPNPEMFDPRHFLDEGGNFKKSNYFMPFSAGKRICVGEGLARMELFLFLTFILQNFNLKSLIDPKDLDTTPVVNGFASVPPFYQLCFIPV

CCOC(=O)c1c(-c2ccccc2)nc2ccccn12
AC50 (Cytochrome P450 2C19): 25.1 µM (inconclusive)
AC50 (Cytochrome P450 2C9): 25.1 µM (inconclusive)
AC50 (Cytochrome P450 3A4): inconclusive

CCCCn1c(SCC(=O)Nc2cc(C)n[nH]2)nc2ccsc2c1=O
IC50 [1]: > 20 µM (inactive)
IC50 (Cysteine protease ATG4B): 12.2 µM (active)
IC50 (Phospholipase A2): 9.31 µM (active)

CC1=CC(c2ccccc2)n2nnnc2N1 (stereo unspecified)
IC50 (HEK293 [2]): > 67.6 µM (inactive)
IC50 [3]: > 67.6 µM (inactive)

O=C(c1ccccc1)c1cnc(Nc2ccccc2Cl)s1
IC50 (Cysteine protease ATG4B): 11.5 µM (active)
IC50 (Phospholipase A2): 7.65 µM (active)

COc1ccc(-c2[nH]nc3c2C(c2ccc(OC(=O)N4CCOCC4)cc2)C(C#N)=C(N)O3)cc1 (stereo unspecified)
IC50 (Cysteine protease ATG4B): 18.3 µM (active)
IC50 (Phospholipase A2): 13.4 µM (active)

O=C(c1ccccc1)c1ccc2[nH]c(-c3ccc(NC(=O)c4ccccc4Br)cc3)nc2c1
EC50 [4]: 2.97 µM (active)
EC50 [5]: 6.15 µM (active)
EC50 [6]: 1.59 µM (active)
EC50 [7]: 7.33 µM (active)
AC50 (Cytochrome P450 2D6): 14.1 µM (inconclusive)
AC50 (Cytochrome P450 3A4): inconclusive

COc1ccc(-c2nc(CN3CCN(c4ncnc5ccccc45)CC3)c(C)o2)c(OC)c1
EC50 (HEK293 [8]): 5.23 µM (active)
IC50 (HEK293 [9]): 6.96 µM (active)
IC50 (HEK293 [10]): 13.7 µM (active)
EC50 [11]: 5.52 µM (active)
IC50 (HEK293 [12]): 6.38 µM (active)
IC50 (HEK293 [13]): > 20 µM (inactive)
IC50 [14]: 16.8 µM (active)
AC50 [15]: 6.38 µM (active)
AC50 [16]: > 70 µM (inactive)
AC50 [17]: 5.24 µM (active)

O=C(Nc1ccccc1)N1CC2(CCN(C(=O)Oc3ccccc3)CC2)C1
AC50 (Cytochrome P450 1A2): 20 µM (inconclusive)
AC50 (Cytochrome P450 3A4): inconclusive

C[C@@H]1CN(Cc2nc(-c3cccs3)no2)C[C@H](C)O1
IC50 (HEK293 [2]): > 67.5 µM (inactive)
IC50 [3]: > 67.5 µM (inactive)

O=C(Oc1ccccc1)N1CCC2(CC1)CN(c1ncccn1)C2
AC50 (Cytochrome P450 1A2): 25.1 µM (inconclusive)
AC50 (Cytochrome P450 2C9): 25.1 µM (inconclusive)
AC50 (Cytochrome P450 3A4): inconclusive

CN(NC1OC(=O)c2ccccc21)c1ccccc1[N+](=O)[O-] (stereo unspecified)
IC50 (HEK293 [2]): > 67.5 µM (inactive)
IC50 [3]: > 67.5 µM (inactive)

COC(=O)c1cc(/N=C/c2c(O)oc3ccccc3c2=O)cc(C(=O)OC)c1
IC50 (HEK293 [2]): > 67.5 µM (inactive)
IC50 [3]: > 67.5 µM (inactive)

Cc1c(C)c(C)c(CO/N=C/c2cccs2)c(C)c1C
IC50 (Cysteine protease ATG4B): 17.4 µM (active)
IC50 (Phospholipase A2): 7.99 µM (active)
